Laboratory results as given in PubChem BioAssay AID298 (DTP/NCI, 2004).
“And” between values parts separate entries of the source, which are not always exact repeats. Identical values can stand only once. Results filed as inconclusive are left out.

Test system: MX-1 breast xenograft, intrarenal, nude mice, tumor weight
Experiment: NCI In Vivo Anticancer Drug Screen. Data for tumor model Human Mammary Carcinoma MX-1 Xenograft (intrarenal inoculation) in NU/NU BALB/C (nude) mice
Conditions: endpoint: mean tumor weight change, higher = larger tumour
In short: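 Compounds were given to mice carrying transplanted tumors, and tumor size or survival was measured. Each value is the treated-group measurement (T) divided by the vehicle-treated control-group measurement (C).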

[1] = dose: 50.0 mg/kg/injection, schedule: Q04DX003 (ip), vehicle: saline
[2] = dose: 200.0 mg/kg/injection, schedule: Q04DX003 (ip), vehicle: saline
[3] = dose: 300.0 mg/kg/injection, schedule: Q04DX003 (sc), vehicle: Klucel (hydroxypropylcellulose) (HPC)
[4] = dose: 100.0 mg/kg/injection, schedule: Q01DX010 (sc), vehicle: Klucel (hydroxypropylcellulose) (HPC)
[5] = dose: 200.0 mg/kg/injection, schedule: Q01DX010 (sc), vehicle: Klucel (hydroxypropylcellulose) (HPC)
[6] = dose: 400.0 mg/kg/injection, schedule: Q01DX010 (sc), vehicle: Klucel (hydroxypropylcellulose) (HPC)

O=P1(N(CCCl)CCCl)NCCCO1 (stereo unspecified)
T/C (dose: 25.0 mg/kg/injection, schedule: Q01DX010 (sc), vehicle: saline): 3 % of control | T/C (dose: 25.0 mg/kg/injection, schedule: Q04DX003 (ip), vehicle: saline): 1 % of control and -23 % of control | T/C (dose: 50.0 mg/kg/injection, schedule: Q01DX010 (sc), vehicle: saline): -11 % of control | T/C [1]: -88 % of control and -100 % of control | T/C (dose: 100.0 mg/kg/injection, schedule: Q04DX003 (sc), vehicle: saline): -95 % of control | T/C [2]: -73 % of control

C=CC(C)(C)n1cc(C2=C(O)C(=O)C(c3cn(C(C)(C)C=C)c4ccccc34)=C(O)C2=O)c2ccccc21
T/C (dose: 50.0 mg/kg/injection, schedule: Q04DX003 (sc), vehicle: Klucel (hydroxypropylcellulose) (HPC)): 80 % of control | T/C (dose: 100.0 mg/kg/injection, schedule: Q04DX003 (sc), vehicle: Klucel (hydroxypropylcellulose) (HPC)): 96 % of control | T/C (dose: 200.0 mg/kg/injection, schedule: Q04DX003 (sc), vehicle: Klucel (hydroxypropylcellulose) (HPC)): 76 % of control | T/C (dose: 400.0 mg/kg/injection, schedule: Q04DX003 (sc), vehicle: Klucel (hydroxypropylcellulose) (HPC)): 74 % of control

Cc1cc(=NO)cc(C)n1O
T/C (dose: 300.0 mg/kg/injection, schedule: Q04DX003 (sc), vehicle: distilled water + alcohol): 116 % of control | T/C (dose: 1200.0 mg/kg/injection, schedule: Q04DX003 (sc), vehicle: distilled water + alcohol): 90 % of control | T/C (dose: 2400.0 mg/kg/injection, schedule: Q04DX003 (sc), vehicle: distilled water + alcohol): 89 % of control

COC(=O)C1(F)C(=O)NC(=O)NC1OC (stereo unspecified)
T/C (dose: 150.0 mg/kg/injection, schedule: Q04DX003 (ip), vehicle: Klucel (hydroxypropylcellulose) (HPC)): 85 % of control | T/C (dose: 300.0 mg/kg/injection, schedule: Q04DX003 (ip), vehicle: Klucel (hydroxypropylcellulose) (HPC)): 93 % of control | T/C (dose: 600.0 mg/kg/injection, schedule: Q04DX003 (ip), vehicle: Klucel (hydroxypropylcellulose) (HPC)): 43 % of control

Cc1cc(N/N=C/c2ccccn2)nc2ccccc12
T/C [3]: 74 % of control | T/C (dose: 600.0 mg/kg/injection, schedule: Q04DX003 (sc), vehicle: Klucel (hydroxypropylcellulose) (HPC)): 73 % of control | T/C (dose: 1200.0 mg/kg/injection, schedule: Q04DX003 (sc), vehicle: Klucel (hydroxypropylcellulose) (HPC)): 43 % of control | T/C (dose: 2400.0 mg/kg/injection, schedule: Q04DX003 (sc), vehicle: Klucel (hydroxypropylcellulose) (HPC)): 68 % of control

C/C=C\C1OC1(C)c1cc(=O)c2c(C)cc3c(c2o1)C(=O)c1c(O)c(C2CC(C)(N(C)C)C(OC(C)=O)C(C)O2)cc(C2CC(N(C)C)C(O)C(C)O2)c1C3=O (stereo unspecified)
T/C (dose: 0.75 mg/kg/injection, schedule: Q04DX003 (ip), vehicle: saline + alcohol): 89 % of control | T/C (dose: 1.5 mg/kg/injection, schedule: Q04DX003 (ip), vehicle: saline + alcohol): 34 % of control and 50 % of control | T/C (dose: 3.0 mg/kg/injection, schedule: Q04DX003 (ip), vehicle: saline + alcohol): 29 % of control and 47 % of control | T/C (dose: 6.0 mg/kg/injection, schedule: Q04DX003 (ip), vehicle: saline + alcohol): 11 % of control and 32 % of control | T/C (dose: 12.0 mg/kg/injection, schedule: Q04DX003 (ip), vehicle: saline + alcohol): 39 % of control

COC1C(CO)OC(n2cnc3c(=S)nc(N)[nH]c32)C1O (stereo unspecified)
T/C (dose: 150.0 mg/kg/injection, schedule: Q04DX003 (sc), vehicle: Klucel (hydroxypropylcellulose) (HPC)): 105 % of control | T/C [3]: 48 % of control

C[C@]12CC[C@H]3[C@@H](CCC4=C[C@@H](OC5OCC(OC6OC(CO)C(O)C(O)C6O)C(O)C5O)CC[C@@]43C=O)[C@@]1(O)CCC2C1=CC(=O)OC1 (stereo partly specified)
T/C (dose: 15.0 mg/kg/injection, schedule: Q04DX003 (sc), vehicle: Klucel (hydroxypropylcellulose) (HPC)): 118 % of control

CN=C(N)N/N=C(\C)c1ccc2sc3ccc(/C(C)=N/NC(N)=NC)cc3c2c1
T/C (dose: 150.0 mg/kg/injection, schedule: Q04DX003 (ip), vehicle: saline with Tween-80): 90 % of control | T/C (dose: 300.0 mg/kg/injection, schedule: Q04DX003 (ip), vehicle: saline with Tween-80): 59 % of control

O=c1[nH]c(=O)n(C2CC(O)C(CO)O2)cc1F (stereo unspecified)
T/C (dose: 25.0 mg/kg/injection, schedule: Q01DX010 (sc), vehicle: water): 47 % of control and 68 % of control | T/C (dose: 100.0 mg/kg/injection, schedule: Q01DX010 (sc), vehicle: water): 15 % of control and 18 % of control

O=C(NO)c1ccccc1
T/C [4]: 89 % of control | T/C [5]: 61 % of control | T/C [6]: 21 % of control

CCCC(=O)OCc1cc(=O)n(C)c2c3c4c(cc12)c(C)cc(=O)n4CO3
T/C (dose: 50.0 mg/kg/injection, schedule: Q01DX010 (sc), vehicle: Klucel (hydroxypropylcellulose) (HPC)): 79 % of control | T/C [4]: 75 % of control | T/C [5]: 64 % of control | T/C [6]: 66 % of control | T/C (dose: 800.0 mg/kg/injection, schedule: Q01DX010 (sc), vehicle: Klucel (hydroxypropylcellulose) (HPC)): 61 % of control

NC(=S=O)C(N)=S=O
T/C (dose: 125.0 mg/kg/injection, schedule: Q04DX003 (ip), vehicle: saline with Tween-80): 42 % of control | T/C (dose: 250.0 mg/kg/injection, schedule: Q04DX003 (ip), vehicle: saline with Tween-80): 65 % of control | T/C (dose: 500.0 mg/kg/injection, schedule: Q04DX003 (ip), vehicle: saline with Tween-80): 60 % of control

N[C@@H](Cc1ccc(N(CCCl)CCCl)cc1)C(=O)O
T/C (dose: 1.0 mg/kg/injection, schedule: Q01DX010 (sc), vehicle: saline): 1 % of control and 3 % of control | T/C (dose: 1.0 mg/kg/injection, schedule: Q04DX003 (sc), vehicle: saline): 88 % of control | T/C (dose: 1.5 mg/kg/injection, schedule: Q04DX003 (sc), vehicle: saline): 49 % of control | T/C (dose: 2.0 mg/kg/injection, schedule: Q01DX010 (sc), vehicle: saline): -85 % of control and -79 % of control | T/C (dose: 2.0 mg/kg/injection, schedule: Q04DX003 (ip), vehicle: saline with Tween-80): -48 % of control and -38 % of control | T/C (dose: 2.0 mg/kg/injection, schedule: Q04DX003 (sc), vehicle: saline): 17 % of control | T/C (dose: 3.0 mg/kg/injection, schedule: Q04DX003 (sc), vehicle: saline): 3 % of control | T/C (dose: 4.0 mg/kg/injection, schedule: Q01DX010 (sc), vehicle: saline): -92 % of control and -70 % of control | T/C (dose: 4.0 mg/kg/injection, schedule: Q04DX003 (ip), vehicle: saline with Tween-80): -94 % of control and -93 % of control | T/C (dose: 4.0 mg/kg/injection, schedule: Q04DX003 (sc), vehicle: saline): -9 % of control | T/C (dose: 6.0 mg/kg/injection, schedule: Q04DX003 (sc), vehicle: saline): -87 % of control | T/C (dose: 8.0 mg/kg/injection, schedule: Q01DX010 (sc), vehicle: saline): -87 % of control | T/C (dose: 8.0 mg/kg/injection, schedule: Q04DX003 (ip), vehicle: saline with Tween-80): -100 % of control and -99 % of control | T/C (dose: 8.0 mg/kg/injection, schedule: Q04DX003 (sc), vehicle: saline): -89 % of control | T/C (dose: 12.0 mg/kg/injection, schedule: Q04DX003 (sc), vehicle: saline): -96 % of control

Cc1ccc(C(=O)Nc2ccc(S(=O)(=O)O)c3cc(S(=O)(=O)O)cc(S(=O)(=O)O)c23)cc1NC(=O)c1cccc(NC(=O)Nc2cccc(C(=O)Nc3cc(C(=O)Nc4ccc(S(=O)(=O)O)c5cc(S(=O)(=O)O)cc(S(=O)(=O)O)c45)ccc3C)c2)c1
T/C [1]: 77 % of control | T/C (dose: 100.0 mg/kg/injection, schedule: Q04DX003 (ip), vehicle: saline): 56 % of control | T/C [2]: 51 % of control

Nc1nc(=S)c2[nH]cnc2[nH]1
T/C (dose: 1.6 mg/kg/injection, schedule: Q01DX010 (sc), vehicle: Klucel (hydroxypropylcellulose) (HPC)): 50 % of control

O=C(Nc1cccc(Cl)c1)ON1C(=O)C2C(C1=O)C1(Cl)C(Cl)C(Cl)C2(Cl)C1(Cl)Cl (stereo unspecified)
T/C (dose: 300.0 mg/kg/injection, schedule: Q04DX003 (sc), vehicle: saline with Tween-80): 91 % of control | T/C (dose: 600.0 mg/kg/injection, schedule: Q04DX003 (sc), vehicle: saline with Tween-80): 100 % of control | T/C (dose: 1200.0 mg/kg/injection, schedule: Q04DX003 (sc), vehicle: saline with Tween-80): 91 % of control | T/C (dose: 2400.0 mg/kg/injection, schedule: Q04DX003 (sc), vehicle: saline with Tween-80): 114 % of control

CC(NNC(=S)N(C)C1CCCCC1)c1cc2ccccc2cn1 (stereo unspecified)
T/C (dose: 150.0 mg/kg/injection, schedule: Q04DX003 (ip), vehicle: saline): 80 % of control

CS(C)(O)NC(N)=O
T/C (dose: 150.0 mg/kg/injection, schedule: Q04DX003 (ip), vehicle: water): 119 % of control | T/C (dose: 300.0 mg/kg/injection, schedule: Q04DX003 (ip), vehicle: water): 154 % of control | T/C (dose: 600.0 mg/kg/injection, schedule: Q04DX003 (ip), vehicle: water): 110 % of control | T/C (dose: 1200.0 mg/kg/injection, schedule: Q04DX003 (ip), vehicle: water): 74 % of control
